Test results as given in patent US20030032636A1, “Combination of a serotonin reuptake inhibitor and a 5-HT2C antagonist, inverse agonist or partial agonist” (H. Lundbeck A/S, priority 1999, published 2003).

Experiments:
[1] = combined with fluoxetine; cited from earlier work
5-HT2C receptors = details: cited from earlier work
5-HT2C receptor = target: T1, 5-HT2C receptor (Rattus norvegicus, UniProt P08909); assay: 5-HT2C binding (3H-Mesulergine, SR-3T3 cells); details: 0.5 nM 3H-Mesulergine
T1 construct: host or cells: SR-3T3 cells
T1 sequence (P08909 33-460): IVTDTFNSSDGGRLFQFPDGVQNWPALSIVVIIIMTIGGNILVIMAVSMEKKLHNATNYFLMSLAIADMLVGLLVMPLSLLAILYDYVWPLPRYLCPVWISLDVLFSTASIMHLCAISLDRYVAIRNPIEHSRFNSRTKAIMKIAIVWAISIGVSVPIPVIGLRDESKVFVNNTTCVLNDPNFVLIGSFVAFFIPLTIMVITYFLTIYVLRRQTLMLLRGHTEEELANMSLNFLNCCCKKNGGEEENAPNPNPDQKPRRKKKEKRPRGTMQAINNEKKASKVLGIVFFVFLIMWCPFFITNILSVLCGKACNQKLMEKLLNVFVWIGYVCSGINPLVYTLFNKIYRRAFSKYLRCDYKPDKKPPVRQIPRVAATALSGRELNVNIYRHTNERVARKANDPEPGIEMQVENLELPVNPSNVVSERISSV
Procedure: The cell suspension is centrifuged and the pellet resuspended in 50 mM Tris, HCl, pH 7.7 and stored at −80° C. For experimental use, the frozen cell pellet is thawed and homogenised with an Ultra Turrax for 10-15 seconds. 1.5 mg cell preparation is incubated with 0.5 nM 3H-Mesulergine for 60 minutes at 37° C. Incubation is terminated by rapid filtration through Filtermat B filters and bound radioactivity is determined in a Tricarb scintillation counter.

[2] = test system: mouse forced swimming test; details: prior administration; ritanserin 4 mg/kg i.p., ketanserin 8 mg/kg i.p.; cited from earlier work
[3] = test system: 5-HT levels in rat ventral hippocampus; assay: Microdialysis, ventral hippocampus 5-HT levels; assay type: in vivo; details: for level of extracellular serotonin: in combination with SSRIs (summary statement); for enhancement of the effect of citalopram on ventral hippocampal 5-HT levels: 1 μmol/kg simultaneous with 10 μmol/kg citalopram; for serotonin levels as measured in microdialysis experiments: administered alone (summary statement); for effect on rat ventral hippocampal 5-HT levels: 1 μmol/kg subcutaneous
Excerpt: Male albino rats of a Wistar-derived strain (285-320 g; Harlan, Zeist, The Netherlands) were used for the experiments. The rats were housed in plastic cages (35×35×40 cm), and had free access to food and water. The experiments are concordant with the declarations of Helsinki and were approved by the Animal Care Committee of the Faculty of Mathematics and Natural Science of the University of Groningen.
The following drugs were used: Citalopram hydrobromide and internal standard (kindly donated by Lundbeck (Copenhagen, Denmark), courtesy Dr. Sanchez), ritanserin and ketanserin tartrate (RBI, Natick, USA). […] All drugs were administered in a volume of 1 mL per kg.
Microdialysis experiments were performed using home made I-shaped probes, made of polyacrylonitrile I sodium methyl sulphonate copolymer dialysis fiber (i.d. 220 μm, o.d. […], AN 69, Hospal, Italy). The exposed length of the membranes was 4 mm. […] Lidocaine-HCl, 10% (m/v) was used for local anaesthesia. Rats were placed in a stereotaxic frame (Kopf, USA), and probes were inserted into the ventral hippocampus (coordinates: IA: +3.7 mm, lateral: +4.8 mm, ventral: −8.0 mm from the dura mater, Paxinos and Watson, 1982) and secured with dental cement.
Probes were perfused with artificial CSF containing 147 mM NaCl, 3.0 mM KCl, 1.2 mM CaCl2, and 1.2 mM MgCl2, at a flow-rate of 1.5 μL/min (Harvard apparatus, South Natick, Ma., USA). Samples were collected on-line in a 20 μL loop and injected automatically onto the column every 15 min.
Serotonin analysis: 5-HT was analysed using HPLC with electrochemical detection. The HPLC pump (Shimadzu LC-10 AD liquid chromatograph) was connected to a reversed phase column (phenomenex hypersil 3: 3 μm, 100×2.0 mm, C18, Bester, Amstelveen, the Netherlands) followed by an electrochemical detector (Antec Leyden, Leiden, the Netherlands), working at a potential setting of 500 mV vs. Ag/AgCl reference. The mobile phase consisted of 5 g/L di-ammoniumsulfate, 500 mg/L ethylene diamino tetra acetic acid (EDTA), 50 mg/L heptane sulphonic acid and 30 μl/L of triethylamine, at a pH of 4.65 and 4.5% (w/w) methanol and water. Flow-rate of the mobile phase was 0.4 ml/min. The detection limit was 0.5 fmol 5-HT per 20 μL sample (signal to noise ratio 3).
Level of significance level was set at p<0. 05.

[4] = test system: NE release in rat hippocampus; details: cited from earlier work
[5] = test system: morphine-induced DA release in rat nucleus accumbens; details: cited from earlier work
[6] = test system: levels of DA, NE and 5-HT in rat frontal cortex; details: cited from earlier work
in vivo = details: rat, sc
Excerpt: In the pharmacokinetic experiments, blood was drawn through a canula made of silicon tubing, which was inserted into the right jugular vein for 3.8 cm. The tubing was transferred subcutaneously to the scull of the rat, and a stainless steel inlet was connected to the tubing. The inlet was mounted on the skull with dental cement and surgical screws. After insertion, canulas were filled with a PVP solution (55% polyvinylpyrrolidon in 500 IE/mL heparin) in saline to prevent blood clotting.
Pharmacokinetic experiments: Rats were allowed to recover for at least 24 h. […]
Citalopram analysis: Citalopram was measured according to Øyehaug et al. (1982), with minor modifications. […]
With the experiments in which 5 mL plasma was obtained via the vacutainer, a similar protocol was used, but the plasma sample was now extracted three times with 10 mL of ether. An HPLC/auto-injector (1084B Liquid Chromatograph, Hewlett-Packard) was used, in combination with a fluorescence detector (470 Scanning Fluorescence detector, Waters, England) operating at an absorption wavelength of 240 nm, an emission wavelength of 296 nm, and a slit-width of 12 nm. […]
Ketanserin analysis: Ketanserin was measured using liquid-liquid extraction, followed by reversed phase chromatography in conjunction with fluorescence detection. […]

[7] = test system: prefrontal cortex 5-HT levels; assay: Microdialysis, prefrontal cortex 5-HT levels; assay type: in vivo, rat

Compound: CN1CCN2c3ccccc3Cc3ccccc3C2C1 (centres unmarked) [mianserin]
- efficacy of fluoxetine in the treatment of treatment resistant patients [1]: augment the efficacy of fluoxetine
- latency of onset of antidepressive effect [1]: may shorten the latency of onset

Compound: Fc1ccc([C@@H]2CCNC[C@H]2COc2ccc3c(c2)OCO3)cc1 [paroxetine]
- effect of chronic administration on 5-HT2C receptors (5-HT2C receptors): functional desensitisation

Compound: CCc1nn(CCCN2CCN(c3cccc(Cl)c3)CC2)c(=O)n1CCOc1ccccc1 [nefazodone]
- Ki (5-HT2C receptor): 0.033 µM

Compound: Cc1nc2sccn2c(=O)c1CCN1CCC(=C(c2ccc(F)cc2)c2ccc(F)cc2)CC1 [ritanserin]
- potentiation of the effects of imipramine and desipramine (16 mg/kg i.p.) [2]: potentiated
- augmentation of the effect of citalopram on ventral hippocampal 5-HT levels ([3]; 10 μmol/kg i.p. given 60 minutes prior to 10 μmol/kg s.c. citalopram): augmented the effect of citalopram significantly
- effect on 5-HT levels in rat ventral hippocampus ([3]; alone, 10 μmol/kg intraperitoneal): did not have any effect
- level of extracellular serotonin [3]: synergistically act to increase
- quipazine-induced decrease of NE release [4]: antagonised

Compound: Clc1cncc(N2CCNCC2)n1 [MK-212]
- morphine-induced DA release [5]: inhibited

Compound: COc1cc(OC)c(C(=O)CCCCN2CCC3(CC2)NC(=O)NC3=O)cc1NS(=O)(=O)c1ccc(C(F)(F)F)cc1 [RS 102221]
- enhancement of the effect of citalopram on ventral hippocampal 5-HT levels [3]: significant enhancement of the effect of citalopram
- serotonin levels as measured in microdialysis experiments [3]: no increase
- effect on rat ventral hippocampal 5-HT levels ([3]; alone): had no effect
- level of extracellular serotonin [3]: synergistically act to increase
- Ki (5-HT2C receptor): 0.00056 µM

Compound: C[C@H](N)Cn1ccc2cc(F)c(Cl)cc21 [Ro 60-0175]
- levels of both DA and NE [6]: suppressed
- levels of serotonin (5-HT) [6]: without modifying

Compound: Cc1ccc2c(c1)c(-c1ccc(F)cc1)c(C)n2C1CCN(CCN2CCNC2=O)CC1 [Lu 29066, 2,5-dimethyl-3-(4-fluorophenyl)-1-[1-[2-(imidazolidin-2-on-1-yl)ethyl]-piperidin-4-yl]-1H-indole]
- enhancement of the effect of citalopram on ventral hippocampal 5-HT levels [3]: significant enhancement of the effect of citalopram
- serotonin levels as measured in microdialysis experiments [3]: no increase
- effect on rat ventral hippocampal 5-HT levels ([3]; alone): had no effect
- level of extracellular serotonin [3]: synergistically act to increase
- Ki (5-HT2C receptor): 0.0069 µM

Compound: O=C1NCCN1CCN1CCN([C@@H]2C[C@@H](c3ccc(F)cc3)c3ccccc32)CC1 [irindalone]
- Ki (5-HT2C receptor): 0.019 µM

Compound: CN(C)CCCC1(c2ccc(F)cc2)OCc2cc(C#N)ccc21 (centres unmarked) [citalopram]
- half-life (in vivo; 10 umol/kg): ~2 h

Compound: O=C(c1ccc(F)cc1)C1CCN(CCn2c(=O)[nH]c3ccccc3c2=O)CC1 [ketanserin]
- potentiation of the effects of imipramine and desipramine (16 mg/kg i.p.) [2]: potentiated
- half-life (in vivo; 100 nmol/kg): ~1.5 h
- augmentation of the citalopram induced increase in cortical 5-HT levels ([7]; 1 nmol/kg co-administered with citalopram): did not augment
- augmentation of the citalopram induced increase in cortical 5-HT levels ([7]; 10 nmol/kg co-administered with citalopram, effect did not reach significance): transiently enhanced the effect of citalopram
- augmentation of the citalopram induced increase in cortical 5-HT levels ([7]; 100 nmol/kg simultaneous with citalopram): significant enhancement of the effect of citalopram
- effect on prefrontal cortex 5-HT levels ([7]; alone, dose not stated): did not show any effect
- augmentation of the effect of citalopram on ventral hippocampal 5-HT levels ([3]; 1 nmol/kg co-administered with 10 μmol/kg citalopram): did not augment the effect of citalopram
- augmentation of the effect of citalopram on ventral hippocampal 5-HT levels ([3]; 10 nmol/kg co-administered with 10 μmol/kg citalopram): significantly enhanced the effect of citalopram
- augmentation of the effect of citalopram on ventral hippocampal 5-HT levels ([3]; 100 nmol/kg co-administered with 10 μmol/kg citalopram): significantly enhanced the effect of citalopram
- enhancement of the effect of fluoxetine on ventral hippocampal 5-HT levels ([3]; 100 nmol/kg simultaneous with 5 mg/kg fluoxetine): significant enhancement of the effect of fluoxetine
- serotonin levels as measured in microdialysis experiments [3]: no increase
- effect on ventral hippocampal 5-HT levels ([3]; alone, 100 nmol/kg subcutaneous): had no effect
- augmentation of the SSRI induced increase in 5-HT levels, ventral hippocampus ([3]; different doses, simultaneous with 10 μmol/kg citalopram): dose dependent augmentation
- level of extracellular serotonin [3]: synergistically act to increase
- Ki (5-HT2C receptor): 0.014 µM

Compound: Cc1cc2c(cc1Cl)N(C(=O)Nc1ccc(Oc3cccnc3C)nc1)CC2 [SB-242084]
- levels of both DA and NE [6]: increased
- levels of serotonin (5-HT) [6]: without modifying
